# Data reported in US12616680B2 (CONSEJO SUPERIOR DE INVESTIGACIONES CIENTÍFICAS (CSIC), priority 2019, dated 2026).
# System: R6/1 mice
# Conditions: oral in drinking water from 3 weeks of age, open field at 13 weeks, rotarod at 18 weeks, biotin 10 mg/kg/day or thiamine 200 mg/kg/day, given separately, FIG. 6A-B
structure (smiles),measurement,value
Cc1ncc(C[n+]2csc(CCO)c2C)c(N)n1 [thiamine],"effect on hypoactivity (open field, distance covered) and motor coordination deficit (rotarod, time to fall)",only showed improving trends in some of the behavioural tests
